Legend:
[1] = system: tobacco plants overexpressing ATH1; assay: Foliar application (spraying) of GA3 to tobacco plants overexpressing ATH1; type: in vivo, Nicotiana tabacum; conditions: 35S::ATH1 tobacco; for late-flowering phenotype of ATH1 overexpressing tobacco after GA spraying: foliar GA3 spraying, data not shown
Experimental: Tobacco plants (Nicotiana tabacum L. cv. Samsun NN) were transformed using the leaf disk procedure (Horsch et al., 1985). Transgenic plants were selected on MS-medium (Murashige and Skoog, 1962) containing […] kanamycin and 2% sucrose. After transfer to soil plants were grown in a greenhouse at 22° C. under a light regime of 16 hours daylight when necessary supplemented with artificial light. The effects of gibberellin (GA) were tested by foliar applications (spraying) of 100 mM GA3 in a solution containing 100 ml/l of Triton X-100. Control plants were sprayed with a solution containing only 100 ml/l of Triton X-100. Spraying began 60 days after sowing when the wild-type plants were approximately 5 cm tall and the 35S CaMV::ATH1 plants approximately 2.5 cm tall, and continued at 3- to 4-day intervals. Plant height was measured every 3 to 4 days and this will be continued until the onset of flowering, as determined by the appearance of flower primordia.

35S::ATH1 Arabidopsis = assay: Rescue of 35S::ATH1 Arabidopsis seeds/seedlings on growth medium containing GA3; type: in vivo, Arabidopsis thaliana; conditions: growth medium containing 10^-5 M GA3 for three days
From the text: In order to gain more insight into the role of ATH1 in plant development, the full length ATH1 cDNA was fused to the constitutive 35S promoter of cauliflower mosaic virus and the 35S::ATH1 chimeric gene was transformed into Arabidopsis via the vacuum infiltration method. Six independent primary transformants could be obtained and all transgenic lines were selfed. From each independent transgenic line 40 individual seeds were germinated and scored for altered phenotypes compared to wild type plants. […] Once rescued and transferred to soil plants developed normally, except for a late flowering phenotype. Under short day conditions transgenic plants form much more rosette leaves (vegetative leaves) than wild type plants (about 40 rosette leaves and 100 days after germination, and plants are still not flowering, compared to about 30 rosette leaves in wild-type plants until flowering). Under LD conditions in most of these plants a partial generative to vegetative reversion occurs, shown by the formation of aerial rosettes (vegetative leaves) on the inflorescence stem. Plants (C24 ecotype) containing an extra copy of the ATH1 cDNA under control of the Hsp18.2 heat shock promoter (HspHlB plants) also show a late-flowering phenotype. […]

For `C=C1C[C@]23C[C@@]1(O)CC[C@H]2[C@@]12C=C[C@H](O)[C@@](C)(C(=O)O1)[C@H]2[C@@H]3C(=O)O` [GA3, gibberellin A3], which “late-flowering phenotype of ATH1 overexpressing tobacco after GA spraying” value [1] is on record?
Its value is “holds also true”.

What about the “late-flowering phenotype of ATH1 overexpressing tobacco after GA spraying” value ([1]; listed as GA) of the same compound?
Its value is “rescue”.

And the “stem length (plant height) of ATH1 overexpressing tobacco after GA3” value ([1]; spraying of 100 mM GA3 at three to four day intervals)?
Its value is “complete restoration of the wild-type stem length”.

What about the “poor germination and arrest in seedling stage of 35S::ATH1 Arabidopsis” value (35S::ATH1 Arabidopsis) of the same compound?
Its value is “could be overcome”.

Source: patent publication US6864051B1, “Plant gene constructs and their use” (priority 1997, dated 2005)
